Series [1] can be described thus: Evaluation of coloring compound for lightfastness (sun tester irradiation, color difference ΔE). In kind it is physicochemical. The settings on record: ΔE after sun tester irradiation, 765 w/m^2, 50° C., 20 hours, on CLC color copy paper. Here is the method: <Evaluation of Coloring Compound for Lightfastness>
A coloring compound was dissolved in a mixed liquid prepared by mixing tetrahydrofuran and cyclohexanone at a volume ratio of 1:1, whereby a 0.04-mol/l coloring compound solution was prepared. The coloring compound solution was filtrated through a filter (pore diameter: 0.2 μm). The coloring compound solution after the filtration was applied to CLC color copy paper (manufactured by Canon Inc.) by a bar coat method (Bar No. 3), and the resultant test paper was dried with air for one whole day and night. Next, the test paper was tested by being irradiated with light from a sun tester (XF-180CPS, manufactured by Shimadzu Corporation) at an illuminance of 765 w/m^2 and a temperature of 50° C. for an irradiation time of 20 hours. The test paper was analyzed with a spectrophotometer (SPECTROLINO, manufactured by Gretag Macbeth) before and after the irradiation test. The chromaticities (L*, a*, b*) of the test paper in an L*a*b* colorimetric system were measured before and after the irradiation test. A color difference (ΔE) was calculated from the following equation.
The coloring compound was evaluated for its lightfastness as described below. • A: ΔE is less than 15. • B: ΔE is 15 or more and less than 30. • C: ΔE is 30 or more.
The coloring compound was judged to have good lightfastness when ΔE was less than 30.

The nature of series [2]: Evaluation of coloring compound for its solubility in a styrene monomer. The series is classed as physicochemical. The settings on record: in a styrene monomer at 25° C. Here is the method:
<Evaluation of Coloring Compound for its Solubility>
A coloring compound was tested for its solubility in a styrene monomer at a temperature of 25° C. of dissolution.
The coloring compound was judged to have sufficient solubility when the percentage by which the coloring compound dissolved in the styrene monomer was 1 mass % or more.

As to `CCCCC(CC)CN(CC(CC)CCCC)C(=O)c1ccccc1/N=N/c1c(O)[nH]c(=O)c(C#N)c1C` (centres unmarked) [D1], the Lightfastness result in series [1] is on record as “A (ΔE is less than 15)”. Moreover, in series [2], the Solubility result is on record as “A (The percentage by which the coloring compound dissolves in the styrene monomer is 10 mass % or more)”.
The matching figures for `CCCCC(CC)CN(CC(CC)CCCC)C(=O)c1ccccc1N=Nc1c(O)[nH]c(=O)c(C#N)c1-c1ccccc1` (centres unmarked) [D2]: “A (ΔE is less than 15)” and “A (The percentage by which the coloring compound dissolves in the styrene monomer is 10 mass % or more)”.
The matching figures for `CCCCCCN(CCCCCC)C(=O)c1ccccc1N=Nc1c(O)[nH]c(=O)c(C#N)c1C` [D3]: “A (ΔE is less than 15)” and “A (The percentage by which the coloring compound dissolves in the styrene monomer is 10 mass % or more)”.
The matching figures for `CCCCCCCCCCCCN(CCCCCCCCCCCC)C(=O)c1ccccc1N=Nc1c(O)[nH]c(=O)c(C#N)c1C` [D4]: “A (ΔE is less than 15)” and “A (The percentage by which the coloring compound dissolves in the styrene monomer is 10 mass % or more)”.
With `CCCCCCCCCCCCN(CCCCCCCCCCCC)C(=O)c1cc(Cl)ccc1N=Nc1c(O)[nH]c(=O)c(C#N)c1C` [D5], the Lightfastness result in series [1] was “B (ΔE is 15 or more and less than 30)”. In addition, in series [2], the Solubility result is “A (The percentage by which the coloring compound dissolves in the styrene monomer is 10 mass % or more)”.
Consider `CCCCc1c(N=Nc2ccc(C)cc2C(=O)OCC(CC)CCCC)c(O)[nH]c(=O)c1C#N` (centres unmarked) [D6], for which the Lightfastness result in series [1] was “B (ΔE is 15 or more and less than 30)”. Further, the Solubility entry in series [2] was “B (The percentage by which the coloring compound dissolves in the styrene monomer is 1 mass % or more and less than 10 mass %)”.
`CCCCC(CC)CN(CC(CC)CCCC)C(=O)c1ccccc1N=Nc1c(C)cc(=O)[nH]c1O` (centres unmarked) [D7]: in series [1], the Lightfastness result was “B (ΔE is 15 or more and less than 30)”. In addition, the Solubility entry in series [2] was “B (The percentage by which the coloring compound dissolves in the styrene monomer is 1 mass % or more and less than 10 mass %)”.
Regarding `CCCCCCCCc1ccc(OC(=O)c2ccccc2N=Nc2c(O)[nH]c(=O)c(C#N)c2C)cc1` [D8], in series [1], the Lightfastness entry is “A (ΔE is less than 15)”. For the same molecule, the Solubility result in series [2] was “B (The percentage by which the coloring compound dissolves in the styrene monomer is 1 mass % or more and less than 10 mass %)”.
With `CCCCc1c(N=Nc2ccc(OC)cc2C(=O)OC(c2ccccc2)c2ccccc2)c(O)[nH]c(=O)c1C#N` [D10], the Lightfastness entry in series [1] was “B (ΔE is 15 or more and less than 30)”. For the same molecule, the Solubility result in series [2] was “B (The percentage by which the coloring compound dissolves in the styrene monomer is 1 mass % or more and less than 10 mass %)”.
`Cc1c(N=Nc2ccccc2C(=O)N(Cc2ccccc2)Cc2ccccc2)c(O)[nH]c(=O)c1C#N` [D11]: in series [1], the Lightfastness result is reported as “A (ΔE is less than 15)”. Besides, the Solubility entry in series [2] is “B (The percentage by which the coloring compound dissolves in the styrene monomer is 1 mass % or more and less than 10 mass %)”.
Take `Cc1c(N=Nc2ccccc2C(=O)N(c2ccccc2)c2ccccc2)c(O)[nH]c(=O)c1C#N` [D12]: the Lightfastness result in series [1] is given as “A (ΔE is less than 15)”. The Solubility entry in series [2] is “B (The percentage by which the coloring compound dissolves in the styrene monomer is 1 mass % or more and less than 10 mass %)”.
For the molecule `CCCCC(CC)CN(CC(CC)CCCC)C(=O)c1ccccc1N=Nc1c(O)[nH]c(=O)c(C(N)=O)c1C` (centres unmarked) [D14], the Lightfastness entry in series [1] was “B (ΔE is 15 or more and less than 30)”. Also, in series [2], the Solubility result is “B (The percentage by which the coloring compound dissolves in the styrene monomer is 1 mass % or more and less than 10 mass %)”.
On to `CCCCc1c(N=Nc2ccccc2C(=O)NCC(CC)CCCC)c(O)[nH]c(=O)c1C#N` (centres unmarked) [D15], for which the Lightfastness entry in series [1] is recorded as “A (ΔE is less than 15)”. In series [2], the Solubility entry was “B (The percentage by which the coloring compound dissolves in the styrene monomer is 1 mass % or more and less than 10 mass %)”.
On to `CCCCc1c(N=Nc2ccccc2C(=O)N2CCC(CCC)CC2)c(O)[nH]c(=O)c1C#N` [D16], for which the Lightfastness result in series [1] is reported as “A (ΔE is less than 15)”. For the same molecule, the Solubility entry in series [2] was “B (The percentage by which the coloring compound dissolves in the styrene monomer is 1 mass % or more and less than 10 mass %)”.
Take `CCCCc1ccc(N=Nc2c(O)[nH]c(=O)c(C#N)c2C)cc1` [E1, reference compound]: in series [1], the Lightfastness result was “C (ΔE is 30 or more)”. In addition, the Solubility entry in series [2] is “B (The percentage by which the coloring compound dissolves in the styrene monomer is 1 mass % or more and less than 10 mass %)”.
Turning to `CCCCn1c(O)c(N=Nc2ccc(Cl)cc2)c(C)c(C#N)c1=O` [E2, reference compound], in series [1], the Lightfastness entry is “C (ΔE is 30 or more)”. Besides, the Solubility result in series [2] is “B (The percentage by which the coloring compound dissolves in the styrene monomer is 1 mass % or more and less than 10 mass %)”.
With `CCCCC(CC)CNS(=O)(=O)c1ccc(N=Nc2c(C)c(C#N)c(=O)n(CCCC)c2O)cc1` (centres unmarked) [E3, reference compound], the Lightfastness result in series [1] is on record as “C (ΔE is 30 or more)”. For the same molecule, the Solubility entry in series [2] is recorded as “A (The percentage by which the coloring compound dissolves in the styrene monomer is 10 mass % or more)”.
In the case of `Cc1c(N=Nc2ccc(N(C)C)cc2)c(O)n(CCCl)c(=O)c1C#N` [E4, reference compound], the Lightfastness entry in series [1] was “C (ΔE is 30 or more)”. The Solubility result in series [2] was “B (The percentage by which the coloring compound dissolves in the styrene monomer is 1 mass % or more and less than 10 mass %)”.
With `CCCCn1c(O)c(N=Nc2ccc(C(=O)OC)cc2)c(C)c(C#N)c1=O` [E5, reference compound], the Lightfastness entry in series [1] is listed as “C (ΔE is 30 or more)”. For the same molecule, the Solubility entry in series [2] was “C (The percentage by which the coloring compound dissolves in the styrene monomer is less than 1 mass %)”.
The corresponding values for `CCCCC(CC)CN(CC(CC)CCCC)C(=O)c1ccc(N=Nc2c(C)c(C#N)c(=O)n(CC)c2O)cc1` (centres unmarked) [E6, reference compound] are “C (ΔE is 30 or more)” and “A (The percentage by which the coloring compound dissolves in the styrene monomer is 10 mass % or more)”.
As for `CCCCn1c(O)c(N=Nc2cccc(C)c2)c(C)c(C#N)c1=O` [E7, reference compound], the Lightfastness entry in series [1] is given as “C (ΔE is 30 or more)”. In series [2], the Solubility entry is “B (The percentage by which the coloring compound dissolves in the styrene monomer is 1 mass % or more and less than 10 mass %)”.
Regarding `CCCCn1c(O)c(N=Nc2ccccc2[N+](=O)[O-])c(C)c(C#N)c1=O` [E8, reference compound], in series [1], the Lightfastness result is reported as “C (ΔE is 30 or more)”. Further, in series [2], the Solubility result is “C (The percentage by which the coloring compound dissolves in the styrene monomer is less than 1 mass %)”.
The corresponding values for `CCCCC(CC)CN(CC(CC)CCCC)C(=O)c1cccc(N=Nc2c(O)[nH]c(=O)c(C#N)c2C)c1` (centres unmarked) [E9, reference compound] are “A (ΔE is less than 15)” and “C (The percentage by which the coloring compound dissolves in the styrene monomer is less than 1 mass %)”.
The corresponding values for `CCCCC(CC)CN(CC(CC)CCCC)C(=O)c1ccc(N=Nc2c(O)[nH]c(=O)c(C#N)c2C)cc1` (centres unmarked) [E10, reference compound] are “C (ΔE is 30 or more)” and “A (The percentage by which the coloring compound dissolves in the styrene monomer is 10 mass % or more)”.
The corresponding values for `CCCCC(CC)CN(CC(CC)CCCC)C(=O)c1ccccc1N=Nc1c(C)c(C#N)c(=O)n(CC)c1O` (centres unmarked) [E11, reference compound] are “C (ΔE is 30 or more)” and “A (The percentage by which the coloring compound dissolves in the styrene monomer is 10 mass % or more)”.

The values are drawn from patent publication US7833685B2, “Coloring compound and yellow toner containing the coloring compound” (Canon Kabushiki Kaisha, priority 2006, dated 2010).
